Two compounds from patent US20210267981A1, “COMPOUNDS FOR THE TREATMENT OF HIV INFECTION AND OTHER DISEASES CAUSED BY RNA VIRUSES” (UNIVERSIDAD CATOLICA DE VALENCIA "SAN VICENTE MARTIR", priority 2018, published 2021) can be followed below.

Like-named read-outs stand apart in the source and are kept apart here.

The subject of test [1] is IIB-Rev34-50 interaction (subdomain IIB of RRE and FITC-labeled Rev34-50 peptide). The test is described as follows: Fluorescence anisotropy (FA) inhibition of IIBh-Rev34-50 interaction. Type of test: binding, HIV-1. As to the method: Fluorescence Anisotropy (FA).
These experiments were performed and analyzed as described in the state of the art (Prado et al., Biochem Pharmacol 107 (2016) 14-28; Gonzalez-Bulnes et al., Angewandte Chemie-International Edition 52(50) (2013) 13405-13409; Luedtke et al., Biopolymers 70(1) (2003) 103-19), using 96-well plates and Victor X3 or Victor X5 plate readers (Perkin Elmer, Waltham USA). The assays used 10 nM of frevp and 60 nM of IIBh, and included one positive control (a mixture of IIBh and frevp) and two negative controls (frevp and a mixture of IIBh, frevp, and neomycin B). IIBh-frevp inhibition was only considered to exist when anisotropy reached the expected minimum value at the highest inhibitor concentrations. To ensure that there would not be spectral superposition with FITC, anisotropy data was also collected for each of the compounds. None of them emitted fluorescence under the assay conditions. These experiments were repeated three times for each compound.
(§1) The capacity of the compounds to inhibit IIB-Rev34-50 interaction was evaluated by means of an assay based on the detection, by means of fluorescence anisotropy (FA), of the shift of an FITC-labeled Rev34-50 peptide from its binding site in subdomain IIB of RRE. The capacity of the compounds to inhibit the formation of the RRE-Rev complex was evaluated by means of an electrophoretic mobility shift assay (EMSA).
(In general: Fluorescence polarisation rises when a labelled molecule tumbles more slowly, as on binding a larger partner.)

The test system of a further test is complete RRE-Rev complex. The test is described as follows: Electrophoretic mobility shift assay (EMSA) of complete RRE-Rev complex formation. Type of test: binding, HIV-1. As to the method: Electrophoretic Mobility Shift Assays (EMSA).
These experiments used 78 nM of complete RRE, 1.32 μM of complete Rev, and increasing concentrations of each compound, and were carried out and analyzed as described previously in the state of the art (Prado et al., Biochem Pharmacol 107 (2016) 14-28; Fang et al., Cell 155(3) (2013) 594-605). The IC50 values were determined by measuring the area and the intensity of the band corresponding to free RRE. These experiments were performed at least three times for each compound.
as §1
For orientation: A gel shift assay detects complexes by their altered migration in electrophoresis.

In test [2] the test system is HIV-1 RNA transcripts (RRE-Rev system in a cellular context). The test is described as follows: HIV-1 RNA processing analysis by RT-qPCR in MT-2 cells transfected with pNL4.3. In kind it is cell-based. Particulars: 5 and 10 μM. The method, then: HIV-1 RNA Processing Analysis.
MT-2 cells, previously treated for 72 or 96 hours with two different concentrations (5 and 10 μM) of compound 1a or 2a, were transfected with a pNL4.3 plasmid. Total cellular RNA was then isolated, treated with DNase I, and reverse transcribed as described in the state of the art (Prado et al., Biochem Pharmacol 107 (2016) 14-28). The unprocessed, semi-processed, and completely processed HIV-1 RNA transcripts were quantified by means of qPCR in relation to an untreated control obtained, using primers described by Mohammadi et al. (PLoS Pathog 9(1) (2013) e1003161), and GAPDH as endogenous control.
Whether or not compounds 1a and 2a acted in the RRE-Rev system in a cellular context was then verified. After transfecting the cells with a full-length proviral vector, the amounts of unprocessed, semi-processed, and completely processed HIV-1 RNA transcripts were quantified by means of RT-qPCR in the absence and presence of each compound (Prado et al., Biochem Pharmacol 107 (2016) 14-28). Given that Rev indirectly puts the splicing process at a disadvantage by transporting unprocessed or semi-processed viral transcripts from the nucleus to the cytoplasm, the blocking of the RRE-Rev system should increase the levels of completely processed species and reduce the amount of unprocessed or semi-processed HIV-1 transcripts.
For orientation: Real-time PCR tracks product formation cycle by cycle.

Another test relates to IIBh RNA. As to the kind of experiment: NMR spectroscopy of compound binding to IIBh RNA. Also on record: species or system HIV-1. Particulars: increasing ligand:RNA molar ratios. As to the method:
The NMR spectra were acquired in a 500 MHz Bruker Avance spectrometer and analyzed with Topspin 3.5 (Bruker Biospin, Billerica, USA). The interaction between the tested compounds and IIBh RNA samples dissolved at a concentration of 40-60 μM were monitored as described previously in the state of the art (Prado et al., Biochem Pharmacol 107 (2016) 14-28; Gonzalez-Bulnes et al., Angewandte Chemie-International Edition 52(50) (2013) 13405-13409), using one-dimensional and two-dimensional experiments (TOCSY) at increasing ligand:RNA molar ratios.
NMR spectroscopy is then used for identifying the binding sites in the IIBh fork of the compounds. […] This compound altered the signals of residues C9, A19, C20, and U23 comprising the Rev binding site, but also disrupted the signals of the double-helix stems flanking the loop. 2a and 2b required a higher drug:RNA molar ratio to induce changes in the signals of IIBh RNA.

In test [3] the test system is complete HIV-1 (NL4.3-luc). As to the kind of experiment: Cell transfection assay, full-length HIV-1 luciferase plasmid (NL4.3-luc) in MT-2 cells. Type of test: cell-based. As to the method:
Cell Transfection Assays.
MT-2 cells were transfected with plasmids containing a luciferase reporter gene the expression of which was under the control of the complete HIV-1 (NL4.3-luc) or HIV-1 LTR promoter (LTR-Luc). After transfection, the cells were treated with different compound concentrations, and the luciferase activity in the cell lysates was quantified 48 h later (Prado et al., Biochem Pharmacol 107 (2016) 14-28; Gonzalez-Bulnes et al., Angewandte Chemie-International Edition 52(50) (2013) 13405-13409).
In order to identify the target or the set of targets of the tested compounds, an assay based on the transfection of a full-length HIV-1 vector is performed. In this experiment, the entry, reverse transcription, and DNA integration phases of the viral cycle are sidestepped, such that only transcriptional or post-transcriptional events which can be blocked by the inhibitor under study are produced.

Where [4] appears, read: Human immunodeficiency virus 1, MT2, 48 h, read-out: EC50 of transfection, HIV.
Setting [5] is: Human immunodeficiency virus 1, MT2, read-out: EC50 transfection assay of full-length HIV-1 vector.

As to `CN(C)CCOc1cc2c(c3ccccc13)-c1ccccc1C2=O` [Compound 1a], the IC50 in test [1] (range given for FA and EMSA together for 2a and 2b, read-out: IC50 (FA, IIB-Rev34-50 interaction)) came to 6.7 µM. In the test with complete RRE-Rev complex, the “concentrations at which formation of RRE-Rev complexes with an unusual molecular weight was promoted” value is reported as “greater than 10 μM”. Further, the “effect on pattern of unprocessed, semi-processed and completely processed HIV-1 RNA transcripts” value in test [2] is “This effect was clearly observed”. For the same compound, in test [2], the “levels of viral transcripts in relation to untreated cells” value is “significant reduction in the levels of viral transcripts”. Also, in the test with IIBh RNA, the “changes of IIBh RNA NMR signals” value is “widened or altered the chemical shift of IIBh resonances at low drug:RNA molar ratios”. Moreover, the EC50 in test [3] (setting [4]) is 2.5 µM; in test [3] (setting [5]), 2.5 to 3.3 µM.
`Fc1nc(N2CCNCC2)c(F)c(Sc2ccc(Cl)cc2)c1F` [Compound 2a]: the IC50 in test [1] (60 nM IIBh and 10 nM frevp, three independent experiments, read-out: IC50 IIB-Rev34-50) amounted to 4.8 µM; with complete RRE-Rev complex (78 nM RRE and 1.32 μM Rev, two independent experiments), 4.7 µM. Besides, the “effect on pattern of unprocessed, semi-processed and completely processed HIV-1 RNA transcripts” value in test [2] is recorded as “did not induce clear changes in the patterns of unprocessed viral transcripts with respect to processed viral transcripts”. In addition, the “levels of viral transcripts in relation to untreated cells” value in test [2] is on record as “reduced the amount of viral transcripts to a lesser extent with respect to 1a”. Besides, the “changes of IIBh RNA NMR signals” value in the test on IIBh RNA is listed as “affected the signals of residues located in the stems flanking the internal loop”. Besides, the results for the EC50 in test [3] (setting [4]) and in test [3] (setting [5]) were 3.3 µM and 2.5 to 3.3 µM, respectively.

Broadly, the IC50 is the point on the concentration scale where inhibition reaches its midpoint. A word on the EC50: it is the midpoint of the concentration-response curve.
